Test results reported in the NIST ThermoML archive (doi:10.1016/j.jct.2015.02.011).
± gives the expanded uncertainty stated by the source.

Assay: xn = mol fraction of the nth substance listed
Settings: 100.7 kPa, Liquid; for speed of sound: Frequency=3 MHz, Sing-around technique in a fixed-path interferometer; for mass density: Vibrating tube method

CCCCCCCC[n+]1ccn(C)c1.F[P-](F)(F)(F)(F)F [1-octyl-3-methylimidazolium hexafluorophosphate] + C1CCOC1
Settings	mass density [kg/m3]	speed of sound [m/s]
293.15 K, x1 = 0.0767	972.545 ± 1.6	1319.1 ± 2.3
293.15 K, x1 = 0.1791	1048.06 ± 1.6	1338.4 ± 2.3
293.15 K, x1 = 0.2783	1097.51 ± 1.6	1356 ± 2.4
293.15 K, x1 = 0.3996	1139.52 ± 1.7	1371.5 ± 2.4
293.15 K, x1 = 0.5198	1169.49 ± 1.7	1384.1 ± 2.5
293.15 K, x1 = 0.612	1187.49 ± 1.7	1392.2 ± 2.6
293.15 K, x1 = 0.6957	1201.25 ± 1.8	1399 ± 2.7
293.15 K, x1 = 0.7754	1212.53 ± 1.8	1405.2 ± 2.7
293.15 K, x1 = 0.8991	1227.92 ± 1.9	1414 ± 2.8
293.15 K, x1 = 1	1238.77 ± 2	1421.2 ± 2.9
298.15 K, x1 = 0.0767	967.476 ± 1.6	1297.5 ± 2.3
298.15 K, x1 = 0.1791	1043.39 ± 1.6	1320.2 ± 2.3
298.15 K, x1 = 0.2783	1092.94 ± 1.6	1339.2 ± 2.4
298.15 K, x1 = 0.3996	1135.15 ± 1.7	1355.5 ± 2.4
298.15 K, x1 = 0.5198	1165.32 ± 1.7	1368.6 ± 2.5
298.15 K, x1 = 0.612	1183.35 ± 1.7	1376.8 ± 2.6
298.15 K, x1 = 0.6957	1197.12 ± 1.8	1383.9 ± 2.7
298.15 K, x1 = 0.7754	1208.52 ± 1.8	1390.5 ± 2.7
298.15 K, x1 = 0.8991	1223.83 ± 1.9	1399.8 ± 2.8
298.15 K, x1 = 1	1234.79 ± 2	1406.5 ± 2.9
303.15 K, x1 = 0.0767	962.388 ± 1.6	1276.5 ± 2.3
303.15 K, x1 = 0.1791	1038.59 ± 1.6	1302.6 ± 2.3
303.15 K, x1 = 0.2783	1088.35 ± 1.6	1322.5 ± 2.4
303.15 K, x1 = 0.3996	1130.86 ± 1.7	1340.1 ± 2.4
303.15 K, x1 = 0.5198	1161.03 ± 1.7	1353.2 ± 2.5
303.15 K, x1 = 0.612	1179.13 ± 1.7	1361.9 ± 2.6
303.15 K, x1 = 0.6957	1193.04 ± 1.8	1369.2 ± 2.6
303.15 K, x1 = 0.7754	1204.52 ± 1.8	1376.1 ± 2.7
303.15 K, x1 = 0.8991	1219.78 ± 1.9	1385.8 ± 2.8
303.15 K, x1 = 1	1230.84 ± 2	1392.4 ± 2.9
308.15 K, x1 = 0.0767	957.488 ± 1.6	1254.8 ± 2.3
308.15 K, x1 = 0.1791	1033.77 ± 1.6	1283.4 ± 2.3
308.15 K, x1 = 0.2783	1083.82 ± 1.6	1304.2 ± 2.4
308.15 K, x1 = 0.3996	1126.53 ± 1.7	1323.2 ± 2.4
308.15 K, x1 = 0.5198	1157 ± 1.7	1338.3 ± 2.5
308.15 K, x1 = 0.612	1175.28 ± 1.7	1347.8 ± 2.6
308.15 K, x1 = 0.6957	1189.11 ± 1.8	1355.3 ± 2.6
308.15 K, x1 = 0.7754	1200.62 ± 1.8	1362.2 ± 2.7
308.15 K, x1 = 0.8991	1216.13 ± 1.9	1371.3 ± 2.8
308.15 K, x1 = 1	1227.09 ± 2	1379 ± 2.9
313.15 K, x1 = 0.0767	952.422 ± 1.6	1231.1 ± 2.3
313.15 K, x1 = 0.1791	1028.9 ± 1.6	1263.7 ± 2.3
313.15 K, x1 = 0.2783	1079.26 ± 1.6	1286.5 ± 2.4
313.15 K, x1 = 0.3996	1122.17 ± 1.7	1309.5 ± 2.4
313.15 K, x1 = 0.5198	1152.84 ± 1.7	1324.6 ± 2.5
313.15 K, x1 = 0.612	1171.22 ± 1.7	1334 ± 2.6
313.15 K, x1 = 0.6957	1185.14 ± 1.8	1341.6 ± 2.6
313.15 K, x1 = 0.7754	1196.65 ± 1.8	1348.4 ± 2.7
313.15 K, x1 = 0.8991	1212.37 ± 1.9	1357.6 ± 2.8
313.15 K, x1 = 1	1223.3 ± 2	1365.8 ± 2.9
318.15 K, x1 = 0.0767	947.162 ± 1.6	1209 ± 2.3
318.15 K, x1 = 0.1791	1024.04 ± 1.6	1242.4 ± 2.3
318.15 K, x1 = 0.2783	1074.69 ± 1.6	1268.7 ± 2.4
318.15 K, x1 = 0.3996	1117.75 ± 1.7	1292.1 ± 2.4
318.15 K, x1 = 0.5198	1148.57 ± 1.7	1309.3 ± 2.5
318.15 K, x1 = 0.612	1167.05 ± 1.7	1319.7 ± 2.6
318.15 K, x1 = 0.6957	1181.01 ± 1.8	1327 ± 2.6
318.15 K, x1 = 0.7754	1192.68 ± 1.8	1333.4 ± 2.7
318.15 K, x1 = 0.8991	1208.44 ± 1.9	1342.7 ± 2.8
318.15 K, x1 = 1	1219.5 ± 2	1351.2 ± 2.9
323.15 K, x1 = 0.0767	941.999 ± 1.6	1185.7 ± 2.3
323.15 K, x1 = 0.1791	1019.03 ± 1.6	1222.6 ± 2.3
323.15 K, x1 = 0.2783	1069.89 ± 1.6	1250.7 ± 2.4
323.15 K, x1 = 0.3996	1113.1 ± 1.7	1276.2 ± 2.4
323.15 K, x1 = 0.5198	1144.07 ± 1.7	1294.4 ± 2.5
323.15 K, x1 = 0.612	1162.61 ± 1.7	1305.3 ± 2.6
323.15 K, x1 = 0.6957	1176.74 ± 1.8	1313 ± 2.6
323.15 K, x1 = 0.7754	1188.63 ± 1.8	1319.2 ± 2.7
323.15 K, x1 = 0.8991	1204.28 ± 1.9	1329.8 ± 2.8
323.15 K, x1 = 1	1215.42 ± 2	1338 ± 2.9
